ChEMBL document CHEMBL1201862, “PubChem BioAssay data set” (2004)
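Results reflect a 48-hour exposure of cells in 96-well plates to compound at five concentrations. Abbreviation: GI50, concentration required for 50% inhibition of growth.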 Activity calls are given as the source filed them. No stated cut-off is given here; in the data, active = GI50 up to about 1.1 µM and inactive = higher.

Tests used:
Experiment in all cases: DTP human tumour cell line panel, 48 h
SNB-19 = tested on: SNB-19
HOP-92 = tested on: HOP-92
KM12 = tested on: KM12
NCI-H460 = tested on: NCI-H460
HOP-18 = tested on: HOP-18
SF-268 = tested on: SF-268
UACC-257 = tested on: UACC-257
ACHN = tested on: ACHN
SN12C = tested on: SN12C
HL-60 = tested on: HL-60
SF-295 = tested on: SF-295
SF-539 = tested on: SF-539
NCI-H226 = tested on: NCI-H226
Malme-3M = tested on: Malme-3M
OVCAR-3 = tested on: OVCAR-3
UACC-62 = tested on: UACC-62
SNB-75 = tested on: SNB-75
SK-MEL-5 = tested on: SK-MEL-5

Measured: GI50

COC(=O)C1C(C(=O)OC)C2C(=O)C3C(C(=O)OC)C(C(=O)OC)C3C(=O)C12 (stereo not given)
inactive: SNB-19 > 100 µM | HOP-92 73.5 µM | KM12 > 100 µM | NCI-H460 > 100 µM | HOP-18 > 100 µM | SF-268 > 100 µM | UACC-257 > 100 µM | ACHN > 100 µM | SN12C > 100 µM | HL-60 > 100 µM | SF-295 > 100 µM | SF-539 > 100 µM | NCI-H226 > 100 µM | Malme-3M > 100 µM

Oc1c(Cl)c2nccnc2c2ccccc12
inactive: HOP-92 > 100 µM | KM12 > 100 µM | OVCAR-3 > 100 µM | NCI-H460 > 100 µM | UACC-62 > 100 µM | HOP-18 36.9 µM | SF-268 > 100 µM | UACC-257 > 100 µM | SNB-75 > 100 µM | ACHN > 100 µM | SN12C > 100 µM | HL-60 > 100 µM | SF-295 > 100 µM | SF-539 > 100 µM | SK-MEL-5 > 100 µM | NCI-H226 > 100 µM | Malme-3M > 100 µM

Cc1cc(Cc2cc(C)c(NC(=O)C(=O)C3C(=O)NC(=S)NC3=O)c(C(C)C)c2)cc(C(C)C)c1NC(=O)C(=O)C1C(=O)NC(=S)NC1=O
inactive: SNB-19 > 100 µM | HOP-92 > 100 µM | KM12 > 100 µM | OVCAR-3 > 100 µM | NCI-H460 > 100 µM | UACC-62 > 100 µM | HOP-18 > 100 µM | SF-268 > 100 µM | UACC-257 > 100 µM | SNB-75 > 100 µM | ACHN > 100 µM | SN12C > 100 µM | HL-60 > 100 µM | SF-295 > 100 µM | NCI-H226 > 100 µM | Malme-3M > 100 µM

C[N+]1=c2c3cccc4cccc(c(=O)n2CCC1)c43
inactive: HOP-92 28.1 µM | KM12 31 µM | OVCAR-3 22.9 µM | NCI-H460 18.2 µM | UACC-62 18.7 µM | HOP-18 53.8 µM | SF-268 23.5 µM | UACC-257 17.3 µM | SNB-75 25.1 µM | ACHN 22.4 µM | SN12C 21 µM | HL-60 4.36 µM | SF-295 40.4 µM | SF-539 30.8 µM | SK-MEL-5 17.9 µM | NCI-H226 18.4 µM | Malme-3M 18 µM

Cc1noc2c1C(=O)CCC2
inactive: HOP-92 > 100 µM | OVCAR-3 > 100 µM | UACC-62 > 100 µM | HOP-18 > 100 µM | SF-268 > 100 µM | UACC-257 > 100 µM | SNB-75 > 100 µM | ACHN > 100 µM | SN12C > 100 µM | HL-60 > 100 µM | SF-539 > 100 µM | NCI-H226 > 100 µM | Malme-3M > 100 µM

CC1=C(C(=O)Nc2ccccc2C)C(c2ccccc2C)C(C(=O)Nc2ccccc2C)=C(C)N1
inactive: SNB-19 22.6 µM | HOP-92 10.1 µM | KM12 18.4 µM | OVCAR-3 16.6 µM | NCI-H460 22.6 µM | HOP-18 18.4 µM | SF-268 20.4 µM | UACC-257 27.5 µM | SNB-75 22.4 µM | ACHN 15.7 µM | SN12C 18 µM | HL-60 17 µM | SF-295 20.1 µM | SF-539 > 10 µM | NCI-H226 21.5 µM | Malme-3M 18.2 µM

C[N+]12c3ccccc3O[B-]1(c1ccccc1)Oc1ccccc12 (stereo not given)
inactive: SNB-19 66.1 µM | HOP-92 > 100 µM | KM12 25.2 µM | OVCAR-3 31 µM | UACC-62 37.4 µM | HOP-18 42.9 µM | SF-268 20.3 µM | UACC-257 27.1 µM | SNB-75 19.9 µM | ACHN 14.8 µM | SN12C 31.9 µM | HL-60 14.5 µM | SF-295 41 µM | SF-539 26.9 µM | SK-MEL-5 36.2 µM | NCI-H226 32.8 µM | Malme-3M 40 µM
